This is an account of results in patent US20170334899A1, “AMINO-SUBSTITUTED ISOTHIAZOLES” (Bayer Pharma Aktiengesellschaft, priority 2014, published 2017).

The assay has as its target T1, human kinase Mps-1 (Homo sapiens, UniProt P33981).
T1 construct: N-terminally GST-tagged human full length recombinant Mps-1 kinase; GST (N); purchased Invitrogen, Karslruhe, Germany PV4071
T1 sequence (P33981 1-857): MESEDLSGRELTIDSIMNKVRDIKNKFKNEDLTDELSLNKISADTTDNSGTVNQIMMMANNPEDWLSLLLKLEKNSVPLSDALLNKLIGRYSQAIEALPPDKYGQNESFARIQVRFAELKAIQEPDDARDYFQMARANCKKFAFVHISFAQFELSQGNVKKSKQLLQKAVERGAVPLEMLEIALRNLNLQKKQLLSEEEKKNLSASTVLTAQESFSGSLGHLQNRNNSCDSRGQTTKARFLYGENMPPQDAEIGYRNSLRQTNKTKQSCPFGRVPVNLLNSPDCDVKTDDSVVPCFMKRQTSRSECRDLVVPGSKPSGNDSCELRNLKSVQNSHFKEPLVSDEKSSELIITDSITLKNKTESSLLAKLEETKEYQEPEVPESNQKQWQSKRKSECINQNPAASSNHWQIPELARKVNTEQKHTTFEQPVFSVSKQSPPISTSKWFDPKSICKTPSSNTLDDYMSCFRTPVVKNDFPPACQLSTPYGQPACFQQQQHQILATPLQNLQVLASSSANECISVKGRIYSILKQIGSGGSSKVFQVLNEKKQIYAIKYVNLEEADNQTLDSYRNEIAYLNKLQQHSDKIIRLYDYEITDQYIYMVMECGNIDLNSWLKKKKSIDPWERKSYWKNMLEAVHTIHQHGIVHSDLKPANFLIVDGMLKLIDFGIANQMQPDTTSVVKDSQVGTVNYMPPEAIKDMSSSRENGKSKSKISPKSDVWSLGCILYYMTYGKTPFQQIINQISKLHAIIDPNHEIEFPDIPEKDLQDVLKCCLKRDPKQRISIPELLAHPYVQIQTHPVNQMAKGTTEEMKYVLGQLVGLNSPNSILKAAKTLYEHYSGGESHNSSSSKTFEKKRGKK
The assay is described as follows: Mps-1 kinase assay (TR-FRET). Type of assay: biochemical. The settings on record: Mps-1 TR-FRET kinase assay; avg; read-out: Mps1 avg (IC50 [mol/l]). Summed up:
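Inhibition normalised between uninhibited reaction (0%) and enzyme-free wells (100%), using the blank-corrected TR-FRET 665/620 nm ratio after EDTA stop. Reaction: ~0.5 nM GST-Mps-1 full length, 10 μM ATP, 1 μM biotin-peptide, 60 min at 22 °C, after 15 min compound pre-binding, pH 7.7.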
For orientation: In TR-FRET formats the signal depends on donor and acceptor labels being close together.

Each structure is given as a SMILES string.

For `Cc1nsc(Nc2cnc3ccccc3n2)c1C(=O)Nc1cccc(NS(=O)(=O)C2CCCN(C(=O)OCc3ccccc3)C2)c1` (stereo not drawn) [Example 291, benzyl 3-{[3-({[3-methyl-5-(quinoxalin-2-ylamino)-1,2-thiazol-4-yl]carbonyl}amino)phenyl]sulfamoyl} piperidine-1-carboxylate], the IC50 was more than 20 µM.

Regarding `Cc1nsc(Nc2cnc3ccccc3n2)c1C(=O)Nc1cccc(NS(=O)(=O)C2CCN(C(=O)OC(C)(C)C)C2)c1` (stereo not drawn) [Example 290, tert-butyl 3-{[3-({[3-methyl-5-(quinoxalin-2-ylamino)-1,2-thiazol-4-yl]carbonyl}amino)phenyl]sulfamoyl} pyrrolidine-1-carboxylate], the IC50 is more than 20 µM.

With `Cc1nsc(Nc2cnc3ccccc3n2)c1C(=O)Nc1cccc(C(=O)NC(C)C)c1` [Example 253, N-[3-(isopropylcarbamoyl)phenyl]-3-methyl-5-(quinoxalin-2-ylamino)-1,2-thiazole-4-carboxamide], the IC50 is more than 20 µM. Turning to `Cc1nsc(Nc2cncc(C(F)(F)F)n2)c1C(=O)Nc1ccc(F)c(OC2CCN(CC(F)F)CC2)c1` [Example 268, N-(3-{[1-(2,2-difluoroethyl)piperidin-4-yl]oxy}-4-fluorophenyl)-3-methyl-5-{[6-(trifluoromethyl)pyrazin-2-yl]amino}-1,2-thiazole-4-carboxamide], the IC50 was more than 20 µM.

Take `Cc1nsc(Nc2cncc(C(F)(F)F)n2)c1C(=O)Nc1ccc(C(=O)N2CCN(CC(F)F)CC2)cc1` [Example 273, N-(4-{[4-(2,2-difluoroethyl)piperazin-1-yl]carbonyl}phenyl)-3-methyl-5-{[6-(trifluoromethyl)pyrazin-2-yl]amino}-1,2-thiazole-4-carboxamide]: the IC50 was more than 20 µM. `Cc1nsc(Nc2cnc3ccccc3n2)c1C(=O)Nc1cccc(NS(=O)(=O)C2CCN(CC(F)(F)F)C2)c1` (stereo not drawn) [Example 289, 3-methyl-5-(quinoxalin-2-ylamino)-N-[3-({[1-(2,2,2-trifluoroethyl)pyrrolidin-3-yl]sulfonyl}amino)phenyl]-1,2-thiazole-4-carboxamide]: the IC50 was more than 20 µM. With `Cc1nsc(Nc2cncc(C(F)(F)F)n2)c1C(=O)Nc1ccc(C(=O)N2CCN(CCF)CC2)cc1` [Example 274, N-(4-{[4-(2-fluoroethyl)piperazin-1-yl]carbonyl}phenyl)-3-methyl-5-{[6-(trifluoromethyl)pyrazin-2-yl]amino}-1,2-thiazole-4-carboxamide], the IC50 is more than 20 µM. Consider `Cc1nsc(Nc2cnc3ccccc3n2)c1C(=O)Nc1cccc(C(=O)NC2CC2)c1` [Example 249, N-[3-(cyclopropylcarbamoyl)phenyl]-3-methyl-5-(quinoxalin-2-ylamino)-1,2-thiazole-4-carboxamide], for which the IC50 was more than 20 µM.

Take `Cc1nsc(Nc2cncc(C(F)(F)F)n2)c1C(=O)Nc1ccc(F)c(OC2CCN(CCF)CC2)c1` [Example 269, N-(4-fluoro-3-{[1-(2-fluoroethyl)piperidin-4-yl]oxy}phenyl)-3-methyl-5-{[6-(trifluoromethyl)pyrazin-2-yl]amino}-1,2-thiazole-4-carboxamide]: the IC50 is more than 20 µM.

In the case of `Cc1nsc(Nc2cnc(C(F)(F)F)cn2)c1C(=O)Nc1ccc(F)c(OCC2CCN(C(CF)CF)CC2)c1` [Example 312, N-(3-{[1-(1,3-difluoropropan-2-yl)piperidin-4-yl]methoxy}-4-fluorophenyl)-3-methyl-5-{[5-(trifluoromethyl)pyrazin-2-yl]amino}-1,2-thiazole-4-carboxamide], the IC50 is not below 20 µM. As for `Cc1nsc(Nc2cc(C#N)ccn2)c1C(=O)Nc1ccc(OC2CCNCC2)nc1` [Example 24, 5-[(4-Cyanopyridin-2-yl)amino]-3-methyl-N-[6-(piperidin-4-yloxy)pyridin-3-yl]-1,2-thiazole-4-carboxamide], the IC50 was 9 µM.

For the compound `Cc1nsc(Nc2cnc(C(F)(F)F)cn2)c1C(=O)Nc1cccc(NC(=O)OC(C)(C)C)c1` [Example 284, 3-tert-butyl (3-{[(3-methyl-5-{[5-(trifluoromethyl)pyrazin-2-yl]amino}-1,2-thiazol-4-yl)carbonyl]amino}phenyl)carbamate], the IC50 is more than 20 µM. As for `Cc1nsc(Nc2cnc(C(F)(F)F)cn2)c1C(=O)Nc1ccc(F)c(OCC2CCN(CCC(F)(F)F)CC2)c1` [Example 311, N-(4-fluoro-3-{[1-(3,3,3-trifluoropropyl)piperidin-4-yl]methoxy}phenyl)-3-methyl-5-{[5-(trifluoromethyl)pyrazin-2-yl]amino}-1,2-thiazole-4-carboxamide], the figure is more than 20 µM. On to `Cc1nsc(Nc2cnc(C(F)(F)F)cn2)c1C(=O)Nc1ccc(F)c(OCCCN(C)CC(F)F)c1` [Example 301, N-(3-{3-[(2,2-difluoroethyl)(methyl)amino]propoxy}-4-fluorophenyl)-3-methyl-5-{[5-(trifluoromethyl)pyrazin-2-yl]amino}-1,2-thiazole-4-carboxamide], for which the IC50 was more than 20 µM. `Cc1nsc(Nc2cnc3ccccc3n2)c1C(=O)Nc1cccc(NS(=O)(=O)C2CN(CCC(F)(F)F)C2)c1` [Example 288, 3-methyl-5-(quinoxalin-2-ylamino)-N-[3-({[1-(3,3,3-trifluoropropyl)azetidin-3-yl]sulfonyl}amino)phenyl]-1,2-thiazole-4-carboxamide]: the IC50 is more than 20 µM. Turning to `Cc1nsc(Nc2cnc(C(F)(F)F)cn2)c1C(=O)Nc1ccc(F)c(OC2CCN(CC(F)(F)F)C2)c1` (stereo not drawn) [Example 315, N-(4-fluoro-3-{[1-(2,2,2-trifluoroethyl)pyrrolidin-3-yl]oxy}phenyl)-3-methyl-5-{[5-(trifluoromethyl)pyrazin-2-yl]amino}-1,2-thiazole-4-carboxamide], the IC50 was not below 20 µM.

As to `Cc1nsc(Nc2cncc(C(F)(F)F)n2)c1C(=O)Nc1ccc(OCCCO)nc1` [Example 278, N-[6-(3-hydroxypropoxy)pyridin-3-yl]-3-methyl-5-{[6-(trifluoromethyl)pyrazin-2-yl]amino}-1,2-thiazole-4-carboxamide], the IC50 is more than 20 µM. With `Cc1nsc(Nc2cnc(C(F)(F)F)cn2)c1C(=O)Nc1ccc(C(=O)NC2CCN(CC(F)F)CC2)cc1` [Example 259, N-(4-{[1-(2,2-difluoroethyl)piperidin-4-yl]carbamoyl}phenyl)-3-methyl-5-{[5-(trifluoromethyl)pyrazin-2-yl]amino}-1,2-thiazole-4-carboxamide], the IC50 was more than 20 µM. As to `Cc1nsc(Nc2cnc(C(F)(F)F)cn2)c1C(=O)Nc1ccc(OCCCNCC(F)(F)F)nc1` [Example 292, 3-methyl-N-(6-{3-[(2,2,2-trifluoroethyl)amino]propoxy}pyridin-3-yl)-5-{[5-(trifluoromethyl)pyrazin-2-yl]amino}-1,2-thiazole-4-carboxamide], the IC50 was more than 20 µM. On to `CCN1CCN(C(=O)c2ccc(NC(=O)c3c(C)nsc3Nc3cnc(C(F)(F)F)cn3)cc2)CC1` [Example 261, N-{4-[(4-ethylpiperazin-1-yl)carbonyl]phenyl}-3-methyl-5-{[5-(trifluoromethyl)pyrazin-2-yl]amino}-1,2-thiazole-4-carboxamide], for which the IC50 is more than 20 µM. For `Cc1nsc(Nc2cnc(C(F)(F)F)cn2)c1C(=O)Nc1ccc(OCCCNCCC(F)(F)F)nc1` [Example 294, 3-methyl-5-{[5-(trifluoromethyl)pyrazin-2-yl]amino}-N-(6-{3-[(3,3,3-trifluoropropyl)amino]propoxy}pyridin-3-yl)-1,2-thiazole-4-carboxamide], the IC50 was more than 20 µM.

For `Cc1nsc(Nc2cnc(C(F)(F)F)cn2)c1C(=O)Nc1ccc(OCCNCC(F)F)nc1` [Example 305, N-(6-{2-[(2,2-difluoroethyl)amino]ethoxy}pyridin-3-yl)-3-methyl-5-{[5-(trifluoromethyl)pyrazin-2-yl]amino}-1,2-thiazole-4-carboxamide], the IC50 was not below 20 µM. In the case of `Cc1nsc(Nc2cc(C#N)ccn2)c1C(=O)Nc1ccc(OC2CCN(CC(F)F)CC2)nc1` [Example 263, 5-[(4-cyanopyridin-2-yl)amino]-N-(6-{[1-(2,2-difluoroethyl)piperidin-4-yl]oxy}pyridin-3-yl)-3-methyl-1,2-thiazole-4-carboxamide], the IC50 is more than 20 µM. The figure for `Cc1nsc(Nc2cncc(C(F)(F)F)n2)c1C(=O)Nc1ccc(C(=O)N2CCN(CC(F)(F)F)CC2)cc1` [Example 272, 3-methyl-N-(4-{[4-(2,2,2-trifluoroethyl)piperazin-1-yl]carbonyl}phenyl)-5-{[6-(trifluoromethyl)pyrazin-2-yl]amino}-1,2-thiazole-4-carboxamide] is more than 20 µM.
